Laboratory results as given in paper PMC6199744, “Development of Chemical Proteomics for the Folateome and Analysis of the Kinetoplastid Folateome” (ACS Infectious Diseases, 2018).
Where “and” joins values, the source holds several entries; their conditions need not be identical. Identical values can stand only once. Like-named read-outs stand apart in the source and are kept apart here.

System: T. brucei lysate proteins
Format: binding, Trypanosoma brucei

`Nc1nc2c(c(=O)[nH]1)N(C=O)C(CNc1ccc(C(=O)N[C@@H](CCC(=O)O)C(=O)O)cc1)CN2` (stereo partly drawn) [LEU, leucovorin] was tested, and the “fold change vs vehicle control” value was 0.89 and 1.1 and 1.13, the fold change (protein CZB00000046.1 HA-UBIQUITIN, vehicle control = 1) was 0.69 and the fold change (protein CZT00008884.1 […]-ASSOCIATED GENE 3 (ESAG3) PROTEIN, vehicle control = 1) was 1.21. For the same compound, the fold change (protein CZT00018965.1 RETRO[…] (RHS) PROTEIN 1, vehicle control = 1) was 1.3, the “fold change vs vehicle control” value (protein TB09.160.3270 ATP-DEPENDENT DEAD BOX HELICASE, PUTATIVE, vehicle control = 1) was 1.53 and the fold change (protein TB09.160.3710 PRO[…] NUCLEAR ANTIGEN (PCNA), PUTATIVE, vehicle control = 1) was 1. For the same compound, the “fold change vs vehicle control” value (protein TB09.160.4200 60S ACIDIC RIBOSOMAL PROTEIN, PUTATIVE, vehicle control = 1) was 1.11, the “fold change vs vehicle control” value (protein TB09.160.4250 TR[…], vehicle control = 1) was 1.26 and the fold change (protein TB09.211.3540 GLYCEROL KINASE, GLYCOSOMAL, vehicle control = 1) was 1.39. For the same compound, the fold change (protein TB11.01.0450 PROTEIN PHOSPHATASE 1, PUTATIVE, vehicle control = 1) was 0.92, the fold change (protein TB11.01.1690 HY[…], CONSERVED, vehicle control = 1) was 1.4 and the “fold change vs vehicle control” value (protein TB11.01.2560 40S RIBOSOMAL PROTEIN SA, PUTATIVE, vehicle control = 1) was 0.87. The fold change (protein TB11.01.3560 VACUOLAR ATP SYNTHASE SUBUNIT B, PUTATIVE, vehicle control = 1) was 0.9, the “fold change vs vehicle control” value (protein TB11.01.4370 HY[…], CONSERVED, vehicle control = 1) was 1.1 and the fold change (protein TB11.01.5350 PROFILIN, vehicle control = 1) was 1.27. For the same compound, the fold change (protein TB11.01.8740 PROTEIN PHOSPHATASE 4, PUTATIVE, vehicle control = 1) was 0.73, the “fold change vs vehicle control” value (protein TB11.02.1135 DYNEIN LIGHT CHAIN, PUTATIVE, vehicle control = 1) was 1.39 and the “fold change vs vehicle control” value (protein TB11.02.2040 HY[…], CONSERVED (ALBA-Domain Protein), vehicle control = 1) was 1.42. For the same compound, the “fold change vs vehicle control” value (protein TB11.02.2510 GUANINE NUCLEOTIDE-BINDING BETA SUBUNIT-LIKE PROTEIN, vehicle control = 1) was 0.98, the fold change (protein TB11.02.2960 MIT[…] PROTEIN, PUTATIVE, vehicle control = 1) was 0.69 and the “fold change vs vehicle control” value (protein TB11.02.4170 40S RIBOSOMAL PROTEIN S5, PUTATIVE, vehicle control = 1) was 1.44. For the same compound, the “fold change vs vehicle control” value (protein TB11.03.0250 C[…], vehicle control = 1) was 1.92, the “fold change vs vehicle control” value (protein TB11.03.0530 HY[…], CONSERVED (hy[…] SCD6.10), vehicle control = 1) was 0.99 and the “fold change vs vehicle control” value (protein TB427TMP.01.0480 HY[…], CONSERVED, vehicle control = 1) was 1.07. For the same compound, the fold change (protein TB427TMP.01.1470 60S RIBOSOMAL PROTEIN L10A, PUTATIVE, vehicle control = 1) was 0.96, the “fold change vs vehicle control” value (protein TB427TMP.01.1680 POLYUBIQUITIN, PUTATIVE, vehicle control = 1) was 1.44 and the fold change (protein TB427TMP.01.2460 HY[…], CONSERVED, vehicle control = 1) was 0.97. For the same compound, the “fold change vs vehicle control” value (protein TB427TMP.01.3370 […] PROTEIN, PUTATIVE, vehicle control = 1) was 1.11, the “fold change vs vehicle control” value (protein TB427TMP.01.4280 HY[…], CONSERVED, vehicle control = 1) was 1.18 and the fold change (protein TB427TMP.01.4650 HY[…], CONSERVED, vehicle control = 1) was 0.86. The “fold change vs vehicle control” value (protein TB427TMP.01.5680 HY[…], CONSERVED, vehicle control = 1) was 1.44, the “fold change vs vehicle control” value (protein TB427TMP.01.5690 DRBD4, vehicle control = 1) was 0.99 and the fold change (protein TB427TMP.01.5960 MIT[…] PROTEIN, PUTATIVE, vehicle control = 1) was 0.85. The fold change (protein TB427TMP.01.6180 HY[…], CONSERVED, vehicle control = 1) was 0.75, the “fold change vs vehicle control” value (protein TB427TMP.01.6890 SMALL GTPASE, PUTATIVE, vehicle control = 1) was 2.02 and the fold change (protein TB427TMP.01.7490 HY[…], CONSERVED, vehicle control = 1) was 0.86. The “fold change vs vehicle control” value (protein TB427TMP.01.7530 HY[…], CONSERVED, vehicle control = 1) was 1.1, the fold change (protein TB427TMP.01.8390 HY[…], CONSERVED, vehicle control = 1) was 0.84 and the fold change (protein TB427TMP.01.8570 DYNEIN LIGHT IN[…] D1BLIC, PUTATIVE, vehicle control = 1) was 0.9. For the same compound, the fold change (protein TB427TMP.02.0030 DYNEIN HEAVY CHAIN, PUTATIVE, vehicle control = 1) was 0.83, the fold change (protein TB427TMP.02.0460 NUCLEOPORIN, vehicle control = 1) was 0.84 and the fold change (protein TB427TMP.02.0760 DYNEIN HEAVY CHAIN, PUTATIVE, vehicle control = 1) was 0.55. For the same compound, the fold change (protein TB427TMP.02.4100 PRETRA[…], ALPHA SUBUNIT, PUTATIVE, vehicle control = 1) was 1.41, the “fold change vs vehicle control” value (protein TB427TMP.02.4300 HY[…], CONSERVED, vehicle control = 1) was 1.07 and the fold change (protein TB427TMP.02.4550 HY[…], CONSERVED, vehicle control = 1) was 0.97. For the same compound, the fold change (protein TB427TMP.02.5660 HY[…], CONSERVED, vehicle control = 1) was 0.76, the “fold change vs vehicle control” value (protein TB427TMP.02.5720 RIBONUCLEOSIDE-DIPHOSPHATE REDUCTASE LARGE CHAIN, vehicle control = 1) was 0.95 and the fold change (protein TB427TMP.03.0150 HY[…], CONSERVED, vehicle control = 1) was 0.88. The fold change (protein TB427TMP.160.2370 HY[…], CONSERVED, vehicle control = 1) was 0.95, the fold change (protein TB427TMP.160.4310 GLUTAMATE DEHYDROGENASE, vehicle control = 1) was 0.99 and the “fold change vs vehicle control” value (protein TB427TMP.160.4560 ARGININE KINASE, vehicle control = 1) was 2.29. For the same compound, the “fold change vs vehicle control” value (protein TB427TMP.160.4620 INOSITOL-1(OR 4)-MONOPHOSPHATASE, PUTATIVE, vehicle control = 1) was 1.07, the “fold change vs vehicle control” value (protein TB427TMP.160.4630 HY[…], CONSERVED, vehicle control = 1) was 1 and the fold change (protein TB427TMP.160.4770 PROTEIN KINASE, PUTATIVE, vehicle control = 1) was 0.91. For the same compound, the fold change (protein TB427TMP.160.4910 FLAVOPROTEIN MONOOXYGENASE, PUTATIVE, vehicle control = 1) was 0.97, the fold change (protein TB427TMP.160.5670 HY[…], CONSERVED, vehicle control = 1) was 0.81 and the fold change (protein TB427TMP.211.2730 GIM5A PROTEIN, vehicle control = 1) was 1.23. The “fold change vs vehicle control” value (protein TB427TMP.211.3140 HY[…], CONSERVED, vehicle control = 1) was 1.57, the “fold change vs vehicle control” value (protein TB427TMP.211.3510 ATP-DEPENDENT DEAD/H RNA HELICASE, PUTATIVE, vehicle control = 1) was 0.96 and the “fold change vs vehicle control” value (protein TB427TMP.22.0003 PHOSPH[…], PUTATIVE, vehicle control = 1) was 0.99. For the same compound, the fold change (protein TB427TMP.46.0001 60S ACIDIC RIBOSOMAL SUBUNIT PROTEIN, PUTATIVE, vehicle control = 1) was 0.96, the fold change (protein TB427TMP.47.0011 HY[…], CONSERVED, vehicle control = 1) was 0.89 and the “fold change vs vehicle control” value (protein TB427TMP.55.0006 INTR[…] PROTEIN IFT88, vehicle control = 1) was 1.07. For the same compound, the “fold change vs vehicle control” value (protein TB427TMP.57.0008 CALPAIN-LIKE PROTEIN, PUTATIVE, vehicle control = 1) was 0.86, the “fold change vs vehicle control” value (protein TB427.01.120 RETRO[…] SPOT (RHS) PROTEIN, PUTATIVE, vehicle control = 1) was 0.97 and the fold change (protein TB427.01.2570 COATOMER BETA SUBUNIT, vehicle control = 1) was 0.97. For the same compound, the fold change (protein TB427.01.420 RETRO[…] SPOT (RHS) PROTEIN, PUTATIVE, vehicle control = 1) was 1.1, the “fold change vs vehicle control” value (protein TB427.02.3880 HET[…] RIBONUC[…]/F, PUTATIVE, vehicle control = 1) was 1.3 and the “fold change vs vehicle control” value (protein TB427.02.5800 SEDOHEPTULOSE-1,7-BISPHOSPHATASE, vehicle control = 1) was 1.36. The “fold change vs vehicle control” value (protein TB427.02.6050 BETA PRIME COP PROTEIN, vehicle control = 1) was 1.34, the fold change (protein TB427.03.1790 PYRUVATE DEHYDROGENASE E1 BETA SUBUNIT, PUTATIVE, vehicle control = 1) was 0.98 and the “fold change vs vehicle control” value (protein TB427.03.3160 POLY(A) POLYMERASE, vehicle control = 1) was 1.23. For the same compound, the “fold change vs vehicle control” value (protein TB427.03.3950 HY[…], CONSERVED, vehicle control = 1) was 0.86, the “fold change vs vehicle control” value (protein TB427.03.4040 HY[…], CONSERVED (Ankyrinrepeat), vehicle control = 1) was 3.1 and the fold change (protein TB427.04.1300 HY[…], CONSERVED, vehicle control = 1) was 1.3. The “fold change vs vehicle control” value (protein TB427.04.1510 PHOSPHOLIPID-TRA[…], PUTATIVE, vehicle control = 1) was 0.95, the “fold change vs vehicle control” value (protein TB427.04.1660 MIT[…] PROTEIN, PUTATIVE, vehicle control = 1) was 1 and the fold change (protein TB427.04.310 HY[…], CONSERVED, vehicle control = 1) was 0.93. It also gave a fold change (protein TB427.04.420 PHOSPHATIDYLINOSITOL 3-KINASE (TOR2), vehicle control = 1) of 0.74, a fold change (protein TB427.04.450 COATOMER ALPHA SUBUNIT, PUTATIVE, vehicle control = 1) of 1.1 and a fold change (protein TB427.04.5010 CALRETICULIN, PUTATIVE, vehicle control = 1) of 2.06. For the same compound, the fold change (protein TB427.04.5200 NUCLEOPORIN (NUP54/57), PUTATIVE, vehicle control = 1) was 0.9, the fold change (protein TB427.05.1210 SHORT-CHAIN DEHYDROGENASE, PUTATIVE, vehicle control = 1) was 1.33 and the “fold change vs vehicle control” value (protein TB427.05.1320 HY[…], CONSERVED, vehicle control = 1) was 1.07. The “fold change vs vehicle control” value (protein TB427.05.1700 R[…] A 28 KDA SUBUNIT, PUTATIVE, vehicle control = 1) was 1.31, the “fold change vs vehicle control” value (protein TB427.05.3260 HY[…], CONSERVED, vehicle control = 1) was 0.99 and the fold change (protein TB427.05.3400 CALCIUM-TRA[…]-TYPE ATPASE, vehicle control = 1) was 1.28. The “fold change vs vehicle control” value (protein TB427.05.4560 GUANINE DEAMINASE, PUTATIVE, vehicle control = 1) was 0.95, the “fold change vs vehicle control” value (protein TB427.06.1500 ALKYL-DIHYDR[…] SYNTHASE, vehicle control = 1) was 0.97 and the fold change (protein TB427.06.3500 ENDOSOMAL T[…] RME-8, PUTATIVE, vehicle control = 1) was 0.71.
